In US11497788B2, “Supramolecular glycosaminoglycans” (Northwestern University, priority 2015, dated 2022):

Experiments:
[1] = tested on: FGF-2 signaling in BaF3-FR1C cells; assay: BaF3-FR1C cell proliferation assay with FGF-2; assay type: cell-based; conditions: FGF-2 10 ng/ml; 2 days
Experimental: BaF3-FR1C Cell Proliferation Assay: Upon reception of a frozen vial, BaF3-FR1C cells were cultured and expanded in growth media as recommended (40). The cells were grown in RPMI1640 medium with 2 mM L-glutamine (Thermo Fisher) containing 10% newborn bovine calf serum (Thermo Fisher), 0.5 ng/mL of recombinant mouse IL-3 (Peprotech), 600 μg/mL of G418 sulfate (Thermo Fisher), 50 nM of 2-mercaptoethanol (Thermo Fisher), and 100 unit/mL penicillin and 100 μg/mL streptomycin (Thermo Fisher) at 37° C., 5% CO2. The medium was changed every 2 days. Experiments were performed using with 1-3 week old passaged cells. The BaF3-FR1C cells were first assessed with the CyQUANT direct cell proliferation assay (Thermo Fisher), but no change in fluorescent signal was observed from a 0 to 2 day old culture in growth conditions although the growth was evident under the microscope. […] For assays testing the effect of heparin and glycopeptide nanofibers FGF-2 induced proliferation, 10,000 cells/well were plated in 50 μl of growth media without G148 sulfate and recombinant mouse IL-3 (NT media) in a 96-well plate. We then added a 2×concentrated mixture of FGF-2 with heparin or glycopeptide nanofibers in the same NT media. […] The absorbance was read at 490 nm in a Cytation 3 instrument (BioTek) and cell growth was compared to cells in NT media. […]

[2] = tested on: rat posterolateral lumbar intertransverse spinal fusion model; assay: Rat posterolateral lumbar intertransverse spinal fusion model; assay type: in vivo
Experimental: Rat Posterolateral Lumbar Intertransverse Spinal Fusion: The study was approved by and conducted in line with the Institutional Animal Care and Use Committee (IACUC) policies and procedures. […] female Sprague-Dawley rats at ages 12-16 weeks were utilized. Animals were assigned to the following treatment groups: 1) 100 ng BMP-2, n=8; 2) 100 ng BMP-2 with PA 4 nanofibers, n=12; and 3) 100 ng BMP-2 with PA 1 nanofibers, n=12. The denoted BMP-2 dose refers to total growth factor amount implanted via two absorbable collagen sponges per animal. For instance, in the 100 ng BMP-2 control group, two collagen sponges (1.75×0.5×0.5 cm) were each impregnated with 50 ng BMP-2 in 100 uL saline containing 6 mM CaCl2, then implanted adjoining the L4-L5 transverse processes on either side of the spine. For PA groups, 100 uL of PA solutions (6 mM) were used in place of saline.
PA solutions were spun down, pipetted for homogeneous mixing, then mixed with BMP-2 at 10:1 vol. ratio to yield 6 mM PA with appropriate BMP-2 concentrations.
Surgical Procedures: Rats were maintained on a heating pad under continuous anesthesia with an isoflurane inhalational anesthetic delivery system, and they were monitored by an assistant for cardiac or respiratory difficulties throughout the procedure. Utilizing a previously-described surgical technique (refs. 23, 41; incorporated by reference in their entireties), the L4 and L5 transverse processes were exposed, irrigated with sterile gentamicin/saline solution, the superficial cortical layer decorticated with a high-speed burr, then collagen sponges with appropriate treatments were implanted bilaterally in the paraspinal musculature between the transverse processes. Afterwards, the fascia and skin incisions were closed, and rats were housed in separate cages.
Manual Palpation: Fusion was assessed via manual palpation following euthanasia at 8 weeks post-surgery. Spines were scored by three blinded observers using a previously established scoring system: 0=no bridging; 1=unilateral bridging; and 2=bilateral bridging (23, 41). To assess fusion rate, spines that received an average score of 1.0 or greater were considered successfully fused.
Micro-Computed Tomography: Synchrotron micro-computed tomography (μCT) was performed on representative samples at station 2-BM of the APS (42, 43). Due to the size constraint of the μCT set-up, harvested spines were sagittally cut along the midline of the vertebrate body, using a slow-speed diamond saw (ref. 43; incorporated by reference in its entirety). Data were acquired with 27 keV photons, projections were recorded every 0.12° over 180°, and reconstruction was on a 2,048×2,048 grid with isotropic 1.45 μm voxels using TomoPy (44). […]

## 3,4,6S-GlcNAc PA (VVAAEEK) [PA 1, glycosylated peptide amphiphile: Alkyne PA click-conjugated with trisulfated monosaccharide 1]
[1]
  FGF-2 mediated cell proliferation: improved
[2]; 100 ng BMP-2, 6 mM PA, 8 weeks, relative to PA 4 nanofibers or saline
  fusion scores, blind manual palpation: highest fusion scores
[2]; 100 ng BMP-2, 6 mM PA, 8 weeks, score ≥1 = fused
  fusion rate: 100%
[2]; 100 ng BMP-2 delivered with nanofibers
  new bone formation, synchrotron micro-computed tomography: formation of new bone connecting the transverse processes
[2]; 100 ng versus 10 μg BMP-2 required in the model
  reduction of required GF (BMP-2) for spinal fusion: 100 fold
